From patent US7601736B2, “Pyridine derivatives, a process for their preparation and a pharmaceutical composition containing the same” (SK Chemicals Co., Ltd., priority 2003, dated 2009)

Key:
TNF-α [1] = assay: Cytokine inhibitory activity in human whole blood (LPS), TNF-α ELISA; format: cell-based; settings: LPS 1 μg/mL, read-out: TNF-α Inhibition rate (conc.); for inhibition at 0.1 µg/mL: test conc. 100 ng/mL
Description: (§1) 20 mL of venous whole blood collected respectively from 5 healthy volunteers of men or women, who had never been medicated with anti-inflammatory drugs within the last two weeks, and was added with heparin. 1 mL each of the above blood was respectively collected, and transferred into test tubes in which it was mixed with test material. The above mixture was precultured at 37° C. for about 1 hour. Then it was added with 1 μg/mL of LPS (lipopolysaccharide), allowed to react at the same temperature for about 4 to about 12 hours and then centrifuged at 4° C. at the rate of 3000 rpm for about 10 minutes. Thus produced plasma was respectively collected and its TNF-α in each plasma was quantitated using human TNF-α ELISA kit based on the amount of recombinant TNF-α in humans. The plate used was coated with anti-human TNF-α monoclone IgG antibodies. Likewise, for the test of IL-1α, IL-1α in each plasma was quantitated using the above plasma and human IL-1α ELISA kit based on the amount of recombinant IL-1α in humans. The plate used was coated with anti-human IL-1α monoclone IgG antibodies. Further, for the test of PGE2, PGE2 in each plasma was quantitated using the above plasma and PGE2 ELISA kit based on the amount of recombinant PGE2 in humans. The plate used was coated with anti-human PGE2 monoclone IgG antibodies. From the above tests, inhibitory rates on the expression of each cytokine were obtained and they were compared to that of Indomethacin.

IL-1α [2] = assay: Cytokine inhibitory activity in human whole blood (LPS), IL-1α ELISA; format: cell-based; settings: LPS 1 μg/mL, read-out: IL-1α Inhibition rate (conc.); for inhibition at 0.1 µg/mL: test conc. 100 ng/mL
Description: as §1

PGE2 = assay: Cytokine inhibitory activity in human whole blood (LPS), PGE2 ELISA; format: cell-based; settings: LPS 1 μg/mL, read-out: PGE2 Inhibition rate (conc.); for inhibition at 300 µg/mL: test conc. 300 μg/mL
Description: as §1

TNF-α [3] = assay: Cytokine inhibitory activity in animal model (LPS-treated SD rats), plasma TNF-α; format: in vivo, Sprague Dawley (SD) rats; settings: Rattus norvegicus, 2 h; SD rats, oral, LPS; 40 mg/kg; read-out: TNF-α Inhibition Rate (Conc.)
Description: (§2) Sprague Dawley (SD) rats with body weights of about 180 to about 200 g were fasted (free drinking) and then tested. Test compounds were administered orally at 40 mg/kg and then abdominally administered with LPS 1 μg/mL after 1 hour. After 2 hours, the rats were sacrificed and bloods were collected from abdominal vein, stored at room temperature for about 2 hours, and then centrifuged at 12,000 rpm for about 2 minutes. Thus produced plasma was respectively collected and its TNF-α in each plasma was quantitated using mouse TNF-α ELISA kit based on the amount of recombinant TNF-α in rats. The plate used was coated with anti-rat TNF-α monoclone IgG antibodies. Likewise, for the test of IL-1α, IL-1α in each plasma was quantitated using the above plasma and mouse IL-1α ELISA kit based on the amount of recombinant IL-1α in rats. The plate used was coated with anti-rat IL-1α monoclone IgG antibodies. Further, for the test of IL-6, IL-6 in each plasma was quantitated using the above plasma and mouse IL-6 ELISA kit based on the amount of recombinant IL-6 in rats. Further, for the test of INF-γ, INF-γ in each plasma was quantitated using the above plasma and mouse INF-γ ELISA kit based on the amount of recombinant INF-γ in rats. The plate used was coated with anti-rat INF-γ monoclone IgG antibodies. From the above tests, inhibitory rates on the expression of each cytokine were obtained and they were compared to that of Indomethacin.

IL-1α [4] = assay: Cytokine inhibitory activity in animal model (LPS-treated SD rats), plasma IL-1α; format: in vivo, Sprague Dawley (SD) rats; settings: oral
Description: as §2, with “Test compounds were administered orally at 40 mg/kg and then abdominally administered with LPS 1 μg/mL after 1 hour.” left out

IL-6 = assay: Cytokine inhibitory activity in animal model (LPS-treated SD rats), plasma IL-6; format: in vivo, Sprague Dawley (SD) rats; settings: oral
Description: as §2, with “Test compounds were administered orally at 40 mg/kg and then abdominally administered with LPS 1 μg/mL after 1 hour.” left out

INF-γ = assay: Cytokine inhibitory activity in animal model (LPS-treated SD rats), plasma INF-γ; format: in vivo, Sprague Dawley (SD) rats; settings: oral
Description: as §2, with “Test compounds were administered orally at 40 mg/kg and then abdominally administered with LPS 1 μg/mL after 1 hour.” left out

TNF-α [5] = assay: Cytokine inhibitory activity in cells: LPS-induced TNF-α in RAW 264.7; format: cell-based, murine; settings: Mus musculus, RAW264.7, RAW 264.7, LPS 1 μg/mL, read-out: TNF-α Inhibition Rate (%); for inhibition at 1 µM: test conc. 1 μM; for inhibition at 10 µM: test conc. 10 μM; for inhibition at 100 µM: test conc. 100 μM; for inhibition at 1000 µM: test conc. 1 mM
Description: General reagents used were purchased from Sigma-Aldrich chem. Co. and cytokine inhibitory activities were tested as follows. Mediums and reagents used in cell culture were purchased from GIBCO BRL (USA), and mouse TNF-α ELISA kit was purchased from R&D system (USA). The apparatus used ELISA reader (Spectra max-Plus 384, Molecular Device, USA).
Murine macrophage cell line RAW 264.7 was kindly provided by Korean Tissue Culture Center (KTCC). The cell line was cultured in DMEM medium containing 10% FBS, in a cell culturing device at the condition of 37° C., 5% CO2. First, murine RAW 264.7 was cultured in DMEM medium containing 10% FBS for about 24 hours, and cells were planted 200 μL each in 96 well plates at the concentration of 5×10^5/mL and cultured for about 24 hours. Then, test compounds were treated at various concentrations and then reacted at 37° C. for about 1 hour, wherein 1 μg/mL of lipopolysaccharide (LPS) was added thereto and reacted at 37° C. for about 12 hours. The supernatant was recovered and the amount of murine TNF-α on the medium was quantitated using ELISA kit. Thalidomide was respectively used as a positive and a negative control to compare the activities and the results are shown in the following tables 4a -4c.

[6] = tested on: ICR (Institute of Cancer Research) mouse; assay: Croton oil-induced ear edema test; format: in vivo; settings: oral
Description: (§3) Male ICR (Institute of Cancer Research) mouse with body weight of about 20 to 30 g were tested wherein each group had 6 mouses. After 1 hour of the oral administration of a test compound, Croton oil (in acetone solution) was coated on one of the ears. After 4 hours, the thickness of the swollen ear in treated group was compared with the other unswollen ear and obtained the average increase rate in thickness of ear by the treatment.

[7] = tested on: ICR (Institute of Cancer Research) mouse; assay: Arachidonic acid-induced ear edema test; format: in vivo; settings: oral
Description: as §3, with “Arachidonic acid” for “Croton oil”, “1 hour,” for “4 hours,”

[8] = tested on: ICR (Institute of Cancer Research) mouse; assay: Analgesic test (acetic acid-induced stretchings); format: in vivo; settings: oral
Description: Male ICR (Institute of Cancer Research) mouse with body weight of about 20 to 30 g were tested wherein each group had 6 mouses. After 1 hour of the oral administration of a test compound, acetic acid (in distilled water) was abdominally administered. For the duration of 10 minutes, the animals were observed regarding the number of stretchings and the number was compared with that of placebo treated group and the result is shown in the following table 7.

TNF-α [9] = assay: Cytokine inhibitory activity in animal model (LPS-treated SD rats), plasma TNF-α; format: in vivo, Sprague Dawley (SD) rats; settings: Rattus norvegicus, 2 h, oral, read-out: TNF-α Inhibition Rate (Conc.)

SMILES	inhibition at 0.1 µg/mL (TNF-α [1]) [%]	inhibition at 0.1 µg/mL (IL-1α [2]) [%]	inhibition at 300 µg/mL (PGE2) [%]	inhibition in vivo at 40 mg/kg (TNF-α [3]) [%]	IL-α Inhibition rate (conc.) (IL-1α [4]; 40 mg/kg)	IL-6 Inhibition rate (conc.) (IL-6; 40 mg/kg)	INF-γ Inhibition rate (conc.) (INF-γ; 40 mg/kg)	inhibition at 1 µM (TNF-α [5]) [%]	inhibition at 10 µM (TNF-α [5]) [%]	inhibition at 100 µM (TNF-α [5]) [%]	inhibition at 1000 µM (TNF-α [5]) [%]	Inhibition Rate (%) ([6]; 2 mg/kg)	Inhibition Rate (%) ([6]; 10 mg/kg)	Inhibition Rate (%) ([6]; 50 mg/kg)	Inhibition Rate (%) ([7]; 2 mg/kg)	Inhibition Rate (%) ([7]; 10 mg/kg)	Inhibition Rate (%) ([7]; 50 mg/kg)	Inhibition Rate (%) ([8]; 10 mg/kg)	Inhibition Rate (%) ([8]; 50 mg/kg)	further results
C=Cc1cncc2c1CCOC2=O [Ex. 9, 5-vinyl-3,4-dihydro-pyrano[3,4-c]pyridine-1-on]	82	93	38	59	62% (40 mg/kg)	43% (40 mg/kg)	45% (40 mg/kg)	37	38	39	41	25	44	37	21	29	39	73	76	–
COc1ccc2c(c1)c(CC(=O)O)c(C)n2C(=O)c1ccc(Cl)cc1 [Indomethacin, reference compound]	–	–	–	–	–	–	–	–	–	–	–	–	–	–	–	–	–	–	–	inhibition at 200 µg/mL (TNF-α [1]; test conc. 200 μg/mL): 37%; inhibition at 200 µg/mL (IL-1α [2]; test conc. 200 μg/mL): 25%; inhibition at 200 µg/mL (PGE2; test conc. 200 μg/mL): 37%; IL-α Inhibition rate (conc.) (IL-1α [4]; 200 mg/kg): 24% (200 mg/kg); IL-6 Inhibition rate (conc.) (IL-6; 200 mg/kg): 60% (200 mg/kg); INF-γ Inhibition rate (conc.) (INF-γ; 200 mg/kg): 13% (200 mg/kg); inhibition in vivo at 200 mg/kg (TNF-α [9]): 46%
Cc1cc2c(cn1)C(=O)OCC2 [Ex. 6, 6-methyl-3,4-dihydro-pyrano[3,4-c]pyridine-1-on]	84	90	23	39	52% (40 mg/kg)	78% (40 mg/kg)	51% (40 mg/kg)	30	35	36	38	17	39	69	21	36	41	76	75	–
O=C1OCCc2ccncc21 [Ex. 3, 3,4-dihydro-pyrano[3,4-c]pyridine-1-on]	90	95	24	75	65% (40 mg/kg)	71% (40 mg/kg)	48% (40 mg/kg)	34	35	43	44	33	56	57	33	51	46	76	92	–
